# Active and inactive are the calls of the source. No cut-off for these calls is given here.
# Assays:
# [1] = tested on: Cryptococcus neoformans; experiment: Antifungal activity against Cryptococcus neoformans H99 assessed as reduction in fungal growth; type: functional
# [2] = tested on: [Candida] auris; experiment: Antifungal activity against Candida auris 0029 assessed as reduction in fungal growth; type: functional; conditions: Candidozyma auris
# [3] = tested on: [Candida] auris; experiment: Antifungal activity against Candida auris ATCC 15448 assessed as reduction in fungal growth; type: functional; conditions: Candidozyma auris
# [4] = tested on: Cryptococcus neoformans; experiment: Antifungal activity against Cryptococcus neoformans H99 assessed as inhibition of cell growth at 16 microg/ml measured for 72 hrs; type: functional, organism-based; conditions: dose 16.0 µg/ml
# [5] = tested on: [Candida] auris; experiment: Antifungal activity against Candida auris 0029 assessed as inhibition of cell growth at 16 microg/ml measured for 72 hrs; type: functional; conditions: Candidozyma auris
# [6] = tested on: Cryptococcus neoformans; experiment: Fungicidal activity against Cryptococcus neoformans H99; type: functional
# [7] = tested on: [Candida] auris; experiment: Fungicidal activity against Candida auris 0029; type: functional; conditions: Candidozyma auris
# [8] = tested on: [Candida] auris; experiment: Antibiofilm activity against Candida auris 0029 assessed as inhibition of biofilm formation at 64 microg/ml incubated for 24 hrs by XTT reduction assay; type: functional; conditions: Candidozyma auris
# [9] = tested on: Cryptococcus neoformans; experiment: Antibiofilm activity against Cryptococcus neoformans H99 assessed as inhibition of capsule formation at 4 microg/ml incubated for 48 hrs by laser confocal microscopic analysis; type: functional, organism-based; conditions: dose 4.0 µg/ml
# [10] = tested on: Cryptococcus neoformans; experiment: Antifungal activity against Cryptococcus neoformans H99 assessed as reduction in fungal growth incubated for 72 hrs in presence of 1 uM Fe2+; type: functional
# [11] = tested on: Cryptococcus neoformans; experiment: Antifungal activity against Cryptococcus neoformans H99 assessed as reduction in fungal growth incubated for 72 hrs in presence of 5 uM Fe2+; type: functional
# [12] = tested on: Cryptococcus neoformans; experiment: Antifungal activity against Cryptococcus neoformans H99 assessed as reduction in fungal growth incubated for 72 hrs in presence of 10 uM Fe2+; type: functional
# [13] = tested on: Cryptococcus neoformans; experiment: Antifungal activity against Cryptococcus neoformans H99 assessed as reduction in fungal growth incubated for 72 hrs in presence of 20 uM Fe2+; type: functional
# [14] = tested on: Cryptococcus neoformans; experiment: Antifungal activity against Cryptococcus neoformans H99 assessed as reduction in fungal growth incubated for 72 hrs in presence of 40 uM Fe2+; type: functional
# [15] = tested on: Cryptococcus neoformans; experiment: Antifungal activity against Cryptococcus neoformans H99 assessed as reduction in fungal growth incubated for 72 hrs in presence of 80 uM Fe2+; type: functional
# [16] = tested on: [Candida] auris; experiment: Effect on sterol composition in Candida auris 0029 assessed as ergosterol content at 1 microg/ml measured after 24 hrs by GC-MS analysis (reference value: 100 %); type: functional, Candidozyma auris; conditions: dose 1 µg/ml
# [17] = tested on: Cryptococcus neoformans; experiment: Effect on sterol composition in Cryptococcus neoformans H99 assessed as ergosterol content at 1 microg/ml measured after 24 hrs by GC-MS analysis (reference value: 58.53%); type: functional; conditions: dose 1 µg/ml
# [18] = tested on: Cryptococcus neoformans; experiment: Effect on sterol composition in Cryptococcus neoformans H99 assessed as lanosterol content at 1 microg/ml measured after 24 hrs by GC-MS analysis; type: functional; conditions: dose 1 µg/ml
# [19] = tested on: Cryptococcus neoformans; experiment: Effect on sterol composition in Cryptococcus neoformans H99 assessed as eburicol content at 1 microg/ml measured after 24 hrs by GC-MS analysis; type: functional; conditions: dose 1 µg/ml
# [20] = tested on: Cryptococcus neoformans; experiment: Effect on sterol composition in Cryptococcus neoformans H99 assessed as other sterols content at 1 microg/ml measured after 24 hrs by GC-MS analysis (reference value: 41.47%); type: functional; conditions: dose 1 µg/ml
# [21] = tested on: Candida albicans; experiment: Synergistic antifungal activity against Candida albicans assessed as inhibition of fungal growth incubated in presence of fluconazole; type: functional, organism-based
# [22] = tested on: [Candida] auris; experiment: Synergistic antifungal activity against Candida auris 0029 assessed as inhibition of fungal growth incubated in presence of fluconazole; type: functional, organism-based; conditions: Candidozyma auris
# [23] = Solubility of compound in MeOH/H2O at pH 7 by HPLC analysis; type: physicochemical
# [24] = Cytotoxicity against HUVEC cells; type: toxicity, cell-based; conditions: human
# [25] = Hemolytic activity in rabbit erythrocytes assessed as hemolysis at 10 to 100 uM relative to control; type: toxicity, cell-based, Oryctolagus cuniculus, Erythrocyte; conditions: dose 10-100 µM, read-out: Activity
# [26] = tested on: Cryptococcus neoformans; experiment: Antifungal activity against Cryptococcus neoformans H99 assessed as inhibition of cell growth at 4 microg/ml measured for 72 hrs; type: functional, organism-based; conditions: dose 4.0 µg/ml
# [27] = tested on: Cryptococcus neoformans; experiment: Antibiofilm activity against Cryptococcus neoformans H99 assessed as inhibition of biofilm formation upto […] microg/ml incubated for 24 hrs by XTT reduction assay; type: functional, organism-based; conditions: dose <= 64.0 µg/ml
# [28] = tested on: [Candida] auris; experiment: Antibiofilm activity against Candida auris 0029 assessed as inhibition of biofilm formation upto […] microg/ml incubated for 24 hrs by XTT reduction assay; type: functional, organism-based; conditions: Candidozyma auris, dose <= 64.0 µg/ml
# [29] = tested on: Cryptococcus neoformans; experiment: Antibiofilm activity against Cryptococcus neoformans H99 assessed as inhibition of biofilm formation at 1 microg/ml incubated for 24 hrs by XTT reduction assay; type: functional, organism-based; conditions: dose 1.0 µg/ml
# [30] = tested on: Cryptococcus neoformans; experiment: Antibiofilm activity against Cryptococcus neoformans H99 assessed as inhibition of capsule formation at 1 microg/ml incubated for 48 hrs by laser confocal microscopic analysis; type: functional, organism-based; conditions: dose 1.0 µg/ml
# [31] = Inhibition of Cryptococcus neoformans H99 JMJD3 by absorbance based analysis
# [32] = Inhibition of Candida auris 0029 JMJD3 by absorbance based analysis; design: species or system Candidozyma auris
# [33] = Metabolic stability in mouse liver microsome assessed as half life; type: ADME; conditions: liver microsomes
# [34] = Metabolic stability in mouse liver microsome assessed as clearance; type: ADME; conditions: liver microsomes, read-out: CLH
smiles,measurement,setting,value
FC(F)(F)c1ccc(N/N=C(\c2ccccc2)c2ccccn2)cc1,MIC80,[1],32 µg/mL
same,MIC80,[2],> 64 µg/mL
same,MIC80,[3],> 64 µg/mL
Clc1ccc(/C(=N\Nc2ccc(Cl)cn2)c2ccccn2)cc1,MIC80,[1],0.5 µg/mL
same,MIC80,[2],2 µg/mL
same,MIC80,[3],1 µg/mL
Cc1ccnc(-n2c(=O)n(-c3ccccn3)c3ccccc32)c1,MIC80,[1],64 µg/mL
same,MIC80,[2],> 64 µg/mL
same,MIC80,[3],> 64 µg/mL
Clc1ccc(N/N=C(\c2ccccc2)c2ccccn2)cc1,MIC80,[1],32 µg/mL
same,MIC80,[2],> 64 µg/mL
same,MIC80,[3],> 64 µg/mL
FC(F)(F)c1ccc(NN=C(c2ccccn2)c2ccccn2)cc1,MIC80,[1],16 µg/mL
same,MIC80,[2],> 64 µg/mL
same,MIC80,[3],> 64 µg/mL
OC(Cn1cncn1)(Cn1cncn1)c1ccc(F)cc1F [FLUCONAZOLE],MIC80,[1],2 µg/mL
same,MIC80,[2],> 64 µg/mL
same,MIC80,[3],16 µg/mL
same,Activity,[4],Active
same,Activity,[5]; dose 16.0 µg/ml,inactive
same,Activity,[6],inactive
same,Activity,[7],inactive
same,Activity,[8]; dose 64.0 µg/ml,inactive
same,Activity,[9],inactive
same,MIC,[10],2 µg/mL
same,MIC,[11],2 µg/mL
same,MIC,[12],4 µg/mL
same,MIC,[13],4 µg/mL
same,MIC,[14],4 µg/mL
same,MIC,[15],4 µg/mL
same,Activity,[16],100%
same,Activity,[17],42.51%
same,Activity,[18],4.24%
same,Activity,[19],48.28%
same,Activity,[20],4.97%
FC(F)(F)c1ccc(N/N=C(/c2ccccc2)c2ccccn2)cc1,MIC80,[1],> 64 µg/mL
same,MIC80,[2],> 64 µg/mL
same,MIC80,[3],> 64 µg/mL
O=c1n(-c2ccccn2)c2ccccc2n1-c1ccc(Cl)cn1,MIC80,[1],64 µg/mL
same,MIC80,[2],> 64 µg/mL
same,MIC80,[3],> 64 µg/mL
Clc1ccc(N/N=C(\c2ccccc2)c2ccccn2)nc1,Activity,[21],inactive
same,Activity,[22],inactive
same,solubility,[23],0.54 µg/mL
same,MIC80,[1],0.5 µg/mL
same,MIC80,[2],2 µg/mL
same,MIC80,[3],0.125 µg/mL
same,IC50,[24],0.079 µM
same,hemolysis at 100 µM,[25],< 3%
same,Activity,[26],Active
same,inhibition at 16 µg/mL,[5],100%
same,MFC,[6],16 µg/mL
same,MFC,[7],256 µg/mL
same,Activity,[27],Active
same,Activity,[28],Active
same,Activity,[29],inactive
same,inhibition at 64 µg/mL,[8],100%
same,Activity,[30],Active
same,IC50,[31],0.168 µM
same,IC50,[32],0.005 µM
same,half-life,[33],34.3 min
same,CLint scaled,[34],159 mL/min/kg
same,MIC,[10],1 µg/mL
same,MIC,[11],4 µg/mL
same,MIC,[12],8 µg/mL
same,MIC,[13],8 µg/mL
same,MIC,[14],64 µg/mL
same,MIC,[15],64 µg/mL
COc1ccc(N/N=C(\c2ccccc2)c2ccccn2)nc1,MIC80,[1],0.5 µg/mL
same,MIC80,[2],2 µg/mL
same,MIC80,[3],0.125 µg/mL

# Reference: ChEMBL document CHEMBL6087415, “Discovery of new fungal jumonji H3K27 demethylase inhibitors for the treatment of Cryptococcus neoformans and Candida auris infections” (Eur J Med Chem, 2025)
